# Read-outs that look alike come from different tables or passages of the source. Marks after values point to notes of the source that are not given here.
# Experiments:
# [1] = system: rats; assay: oral acute toxicity, OECD 420 fixed-dose procedure; format: in vivo
# Experimental: (§1) Toxicological studies were based on established protocols (OECD Test Guidelines) internationally recognized as a reference standard tool for chemical tests.
# Only one dose of substances (300 mg/kg or 2000 mg/kg) was administered orally in rats. A careful observation of the rats was made 30 minutes later and repeated hourly up to 12 h. […] After that, the animals were euthanised and submitted to macroscopic and microscopic necropsy.
# (§2) Laboratory analyses for acute (macroscopic and microscopic analyses) and subacute (macroscopic and microscopic analyses, biochemical and hematologic analysis) toxicity tests were carried out.
# [2] = system: mechanical allodynia induced by carrageenan; assay: mechanical allodynia induced by carrageenan in rats (nylon filament); format: in vivo; conditions: 50 mg/kg i.p. -30 min, 100 or 200 mg/kg oral -60 min
# Experimental: (§3) In the model of thermal allodynia, the latency for paw removal after application of a thermal stimulus is assessed in the Hargreaves apparatus (model 7370, Ugo Basile, Italy). In the model of mechanical allodynia, the frequency of paw withdrawal to a series of ten touches with a nylon filament to the plantar surface of the right hind paw is determined. Dimethyl sulfoxide (DMSO) 25%+Tween 80 10% in saline was the vehicle used for intraperitoneal administration and carboxymethylcellulose 0.5%, a pharmaceutically acceptable excipient, was used for oral administration. Thirty or 60 min after intraperitoneal or oral administration, respectively, carrageenan (1%, 50 μl, suspended in saline) was injected into the plantar surface of the right hindpaw and the latency for paw removal after application of a thermal stimulus or the frequency of paw withdrawal to the mechanical stimulus was evaluated as described.
# [3] = system: febrile response induced by endotoxin of E. coli; assay: febrile response induced by bacterial endotoxin in rats; format: in vivo; conditions: 200 mg/kg oral -60 min
# Experimental: In this model, endotoxin of E. coli (50 μg/kg) is injected intravenously in rats and the colonic temperature is determined during 6 h.
# Carboxymethylcellulose 0.5%, a pharmaceutically acceptable excipient, was used for oral administration. BS (200 mg/kg, oral, −60 min) inhibited the febrile response induced by endotoxin.
# [4] = system: nociceptive response induced by formaldehyde; assay: nociceptive response induced by formaldehyde in mice; format: in vivo
# Experimental: In the nociceptive response induced by formaldehyde (0.92%, 20 μL), the inflammatory stimulus is injected subcutaneously into the dorsum of the right hind paw of male Swiss mice. The time the animal spent licking its injected paw was determined from 0 to 5 min (first phase) and from 15 to 30 min (second phase) after formaldehyde injection. Dimethyl sulfoxide (DMSO) 25%+Tween 80 10% in saline was the vehicle used for intraperitoneal administration and carboxymethylcellulose 0.5%, a pharmaceutically acceptable excipient, was used for oral administration. Thirty or 60 min after intraperitoneal or oral administration, respectively, formaldehyde was injected and the nociceptive behavior evaluated as described.
# [5] = system: thermal allodynia induced by carrageenan; assay: thermal allodynia induced by carrageenan in rats (Hargreaves apparatus); format: in vivo; conditions: 50 mg/kg i.p. -30 min, 100 or 200 mg/kg oral -60 min
# Experimental: as §3
# [6] = system: fibrovascular tissue formation induced by cotton; assay: fibrovascular tissue formation induced by subcutaneous cotton implant; format: in vivo, mice; conditions: 200 mg/kg per day, per os, 7 days; cotton pellet
# Experimental: In the model of fibrovascular tissue formation, a cotton pellet (10 mg) is subcutaneously implanted in the back of mice. After seven days, the mice are euthanized and the cotton pellet involved plus the surrounding fibrovascular tissue is removed and its mass determined. Carboxymethylcellulose 0.5%, a pharmaceutically acceptable excipient, was used for oral administration. BS (200 mg/kg·day, oral) was administered during seven days. Twenty-four hours after the last administration, the animals were euthanised and the mass of the cotton pellet plus the surrounding fibrovascular tissue was determined as described.
# [7] = system: paw edema induced by carrageenan; assay: paw edema induced by carrageenan in rats; format: in vivo; conditions: 50 mg/kg i.p. -30 min or 200 mg/kg oral -60 min
# Experimental: The paw edema was assessed using a pletismometer (model 7140, Ugo Basile, Italy). The basal paw volume was determined before any treatment and the edema was induced by intraplantar injection of carrageenan into the right hindpaw (1%, 50 μl, suspended in saline). Dimethyl sulfoxide (DMSO) 25%+Tween 80 10% in saline was the vehicle used for intraperitoneal administration and carboxymethylcellulose 0.5%, a pharmaceutically acceptable excipient, was used for oral administration. Thirty or 60 min after intraperitoneal or oral administration, respectively, carrageenan (1%, 50 μl, suspended in saline) was injected and the paw edema was evaluated as described.
# [8] = system: nociceptive response induced by heat; assay: nociceptive response induced by heat in the hot plate model; format: in vivo; conditions: mice; 54° C.; 10, 25 or 50 mg/kg i.p. -30 min; 100 or 200 mg/kg oral -60 min
# Experimental: In this model, the mice were exposed to a heat metal surface (54° C.) and the latency for licking the paws or jumping off the plate was determined. Dimethyl sulfoxide (DMSO) 25%+Tween 80 10% in saline was the vehicle used for intraperitoneal administration and carboxymethylcellulose 0.5%, a pharmaceutically acceptable excipient, was used for oral administration. Thirty or 60 min after intraperitoneal or oral administration, respectively, the mice were exposed to the hot plate and the latency for displaying the nociceptive behavior was determined as described.
# [9] = system: cell migration induced by carrageenan; assay: cell migration induced by intraperitoneal injection of carrageenan in rats; format: in vivo; conditions: 200 mg/kg oral -60 min
# Experimental: In this model, carrageenan (500 μg, 1 ml, suspended in saline) is injected into the peritoneal cavity of rats. After three hours, the animals are euthanized and 10 ml phosphate buffer are injected into the peritoneal cavity. The peritoneal lavage is removed and the centrifuged. The supernatant is removed and the pellet is suspended in a 2 ml of phosphate buffer. An aliquot of 20 μl is added to a 400 μl Turk's solution. The number of cells is determined by microscopy.
# Carboxymethylcellulose 0.5%, a pharmaceutically acceptable excipient, was used for oral administration. BS (200 mg/kg, oral, −60 min) inhibited cell migration induced by carrageenan.
# [10] = system: motor activity; assay: motor activity of mice in a rotarod; format: in vivo; conditions: Swiss male mice; 10, 25 or 50 mg/kg intraperitoneal (30 min) or 100 or 200 mg/kg oral (60 min)
# Experimental: The effect of BS on motor activity of Swiss male mice (20-30 g) was evaluated in order to investigate whether inhibition of nociceptive behavior in animals treated with BS would be a result of a central depressive effect. Their motor activity was evaluated in a rotarod. A day before the experiment, the mice were trained in the apparatus. During the experiment, they were put in a rotarod (14 rpm) and the time they stayed in the apparatus was determined. One minute was the cut-off time. After basal measurements, the animals were treated with BS (10, 25 or 50 mg/kg, intraperitoneal or 100 or 200 mg/kg, oral). Dimethyl sulfoxide (DMSO) 25%+Tween 80 10% in saline was the vehicle used for intraperitoneal administration and carboxymethylcellulose 0.5%, a pharmaceutically acceptable excipient, was used for oral administration. Thirty or 60 min after intraperitoneal or oral administration, respectively, the animals were evaluated again in the rotarod apparatus.
# [11] = oral subacute toxicity, OECD 407 repeated dose 28 days, body weight; format: in vivo, rats; conditions: for Final body mass / Initial body mass: BS, mean ± sem
# Experimental: as §1
# The OECD 407 guideline—Repeated-dose Procedure for Assessing Oral Subacute Toxicity (OECD, 1995) was used. The test substance was administered orally daily (from 11:00 am to 1:00 pm) during 28 days. The animals were observed daily during the whole period. Doses of 100, 300, 500 mg/kg for BS were used.
# as §2
# [12] = system: nociceptive response induced by formaldehyde; conditions: compared with first phase; Blackburn-Munro et al., Eur. J. Pharmacol. 445, 231, 2002; cited from earlier work
# [13] = females, Satellite group, n = 5
smiles,measurement,setting,value
"NC(=O)NN=Cc1ccccc1 [BS, benzaldehyde semicarbazone]",Observed signs: general activity score (normal 4),"[1]; 300 mg/kg, 30' - 9 h","General activity (3),"
same,Observed signs: grooming score (normal 0),"[1]; 300 mg/kg, 30' - 9 h",grooming (1)
same,Observed signs,"[1]; 300 mg/kg, 9 h - 14th day",No toxicity signs
same,Observed signs: ataxia score (normal 0),"[1]; 2000 mg/kg, 30' - 12 h",4
same,Observed signs: cage corner score (normal 0),"[1]; 2000 mg/kg, 30' - 12 h",1
same,Observed signs: piloerection score (normal 0),"[1]; 2000 mg/kg, 30' - 12 h","piloerection (1),"
same,Observed signs: prostration score (normal 0),"[1]; 2000 mg/kg, 30' - 12 h",prostration (3)
same,Observed signs,"[1]; 2000 mg/kg, from the 2nd day",No toxicity signs
same,category in the Globally Harmonized System for the Classification and Labeling of Chemicals,[1]; from a death at the highest dose (2.000 mg/kg) in the acute toxicity test,5
same,signs in the acute toxicity test,"[1]; rats, 300 mg/kg oral single dose, reversible after few hours",reduction of motor activity and grooming
same,reversibility of signs of toxicity,"[1]; rats, 2000 mg/kg oral single dose",second day
same,T/M = number of rats treated/number of deaths,[1]; single oral dose 300 mg/kg,5/0
same,T/M = number of rats treated/number of deaths,[1]; single oral dose 2000 mg/kg,5/1*
same,mechanical allodynia induced by carrageenan,[2],inhibited
same,febrile response induced by endotoxin,[3],inhibited
same,first phase of the nociceptive response induced by formaldehyde,"[4]; 50 mg/kg intraperitoneal, only this dose, 0 to 5 min",inhibited
same,second phase of the nociceptive response induced by formaldehyde,"[4]; 10, 25 or 50 mg/kg i.p. or 100 or 200 mg/kg oral, 15 to 30 min",markedly inhibited
same,thermal allodynia induced by carrageenan,[5],inhibited
same,fibrovascular tissue formation,[6],inhibited
same,paw edema induced by carrageenan,[7],inhibited
same,antinociceptive effect in the hot plate model,[8],did not induce an antinociceptive effect
same,cell migration induced by carrageenan,[9],inhibited
same,motor activity (time stayed in the rotarod),[10],did not alter the motor activity
same,Final body mass,[11]; [13],197.27 ± 14.44^AB
same,Initial body mass,[11]; [13],198.10 ± 15.06^A
same,Final body mass,"[11]; females, dose 100, 28 days, n = 5",230.30 ± 15.42^A
same,Initial body mass,"[11]; females, dose 100, n = 5",207.60 ± 12.62^A
same,Final body mass,"[11]; females, dose 300, 28 days, n = 5",208.38 ± 24.28^AB
same,Initial body mass,"[11]; females, dose 300, n = 5",192.30 ± 13.34^A
same,Final body mass,"[11]; females, dose 500, 28 days, n = 5",170.00 ± 17.22^B
same,Initial body mass,"[11]; females, dose 500, n = 5",196.60 ± 8.20^A
same,Final body mass,"[11]; males, Satellite group, death of an animal during treatment",222.57 ± 29.34^B*
same,Initial body mass,"[11]; males, Satellite group, n = 5",197.00 ± 4.51^A
same,Final body mass,"[11]; males, dose 100, 28 days, n = 5",340.20 ± 50.91^A
same,Initial body mass,"[11]; males, dose 100, n = 5",240.87 ± 20.07^A
same,Final body mass,"[11]; males, dose 300, 28 days, n = 5",258.53 ± 25.76^B
same,Initial body mass,"[11]; males, dose 300, n = 5",192.50 ± 8.32^A
same,Final body mass,"[11]; males, dose 500, 28 days, n = 5",240.00 ± 46.65^B
same,Initial body mass,"[11]; males, dose 500, n = 5",225.30 ± 34.72^A
same,body weight gain,"[11]; rats, higher doses, oral daily 28 days",reduced body weight gain
NC(=O)N1c2ccccc2C=Cc2ccccc21 [carbamazepine],second phase of the nociceptive response induced by formaldehyde,[12],inhibit more effectively the second phase
Nc1nnc(-c2cccc(Cl)c2Cl)c(N)n1 [lamotrigine],second phase of the nociceptive response induced by formaldehyde,[12],inhibit more effectively the second phase
O=C1NC(=O)C(c2ccccc2)(c2ccccc2)N1 [phenyloin],second phase of the nociceptive response induced by formaldehyde,[12],inhibit more effectively the second phase

# — patent publication US20100249238A1, “PHARMACEUTICAL COMPOSITIONS COMPRISING SEMICARBAZONES AND THIOSEMICARBAZONES AND METHOD FOR TREATING INFLAMMATORY, PAINFUL AND FEBRILE CONDITIONS AND PREVENTING SIGNS AND SYMPTOMS OF INFLAMMATION” (priority 2007, published 2010)
